# Reference: ChEMBL document CHEMBL1135422 (J Med Chem, 2002)
# Columns and labels:
# Cholinesterase = Cholinesterase (Homo sapiens, UniProt P06276)
# Acetylcholinesterase = molecular target: T1, Acetylcholinesterase (Rattus norvegicus, UniProt P37136); experiment: biochemical
# T1 sequence (P37136 whole entry): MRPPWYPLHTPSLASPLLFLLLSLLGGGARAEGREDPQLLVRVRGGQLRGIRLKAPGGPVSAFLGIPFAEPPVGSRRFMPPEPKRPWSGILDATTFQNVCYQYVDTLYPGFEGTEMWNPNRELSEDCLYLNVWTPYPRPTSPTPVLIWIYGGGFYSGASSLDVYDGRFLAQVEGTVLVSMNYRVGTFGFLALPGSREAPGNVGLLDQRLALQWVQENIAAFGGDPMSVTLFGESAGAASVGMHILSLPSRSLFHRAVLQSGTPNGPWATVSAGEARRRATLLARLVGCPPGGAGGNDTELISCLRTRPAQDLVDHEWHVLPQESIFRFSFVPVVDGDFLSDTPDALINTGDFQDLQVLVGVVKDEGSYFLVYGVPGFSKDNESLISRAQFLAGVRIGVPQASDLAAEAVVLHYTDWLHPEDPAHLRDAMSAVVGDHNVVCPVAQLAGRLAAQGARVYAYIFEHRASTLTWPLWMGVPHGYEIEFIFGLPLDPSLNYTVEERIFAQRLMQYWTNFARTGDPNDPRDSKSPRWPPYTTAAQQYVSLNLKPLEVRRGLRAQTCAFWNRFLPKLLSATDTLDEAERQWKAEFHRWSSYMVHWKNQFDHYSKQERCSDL
# Cholinesterase, sequence (P06276 whole entry): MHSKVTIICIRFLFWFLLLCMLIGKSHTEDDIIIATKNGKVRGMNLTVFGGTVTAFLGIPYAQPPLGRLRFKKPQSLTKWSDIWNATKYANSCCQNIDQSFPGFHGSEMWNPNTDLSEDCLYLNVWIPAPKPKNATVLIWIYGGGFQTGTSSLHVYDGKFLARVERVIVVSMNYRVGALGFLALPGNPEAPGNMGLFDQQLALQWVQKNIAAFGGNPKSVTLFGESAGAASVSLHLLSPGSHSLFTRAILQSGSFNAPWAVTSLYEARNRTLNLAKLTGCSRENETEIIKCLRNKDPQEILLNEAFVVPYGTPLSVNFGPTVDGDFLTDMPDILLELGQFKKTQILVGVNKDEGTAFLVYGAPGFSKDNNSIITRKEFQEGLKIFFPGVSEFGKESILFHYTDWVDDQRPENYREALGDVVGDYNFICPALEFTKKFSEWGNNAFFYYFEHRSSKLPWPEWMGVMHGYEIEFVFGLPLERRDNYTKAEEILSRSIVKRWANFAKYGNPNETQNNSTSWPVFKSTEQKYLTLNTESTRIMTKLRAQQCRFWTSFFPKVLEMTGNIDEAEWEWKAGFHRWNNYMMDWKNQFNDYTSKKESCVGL
SMILES,IC50 (Cholinesterase),IC50 (Acetylcholinesterase)
c1ccc2c(NCCCCCCCCNc3c4c(nc5ccccc35)CCCCC4)c3c(nc2c1)CCCCC3,3.8 nM,
Clc1ccc2c(NCCCCCCCNc3c4c(nc5cc(Cl)ccc35)CCCC4)c3c(nc2c1)CCCC3,26 nM,0.07 nM
c1ccc2c(NCCCCCCCNc3c4c(nc5ccccc35)CCCCC4)c3c(nc2c1)CCCCC3,2.6 nM,
c1ccc2c(NCCCCCCNc3c4c(nc5ccccc35)CCCCC4)c3c(nc2c1)CCCCC3,3.3 nM,2.5 nM
Fc1ccc2c(NCCCCCCCCNc3c4c(nc5cc(F)ccc35)CCCC4)c3c(nc2c1)CCCC3,164 nM,0.7 nM
c1ccc2c(NCCCCCCCNc3c4c(nc5ccccc35)CCCC4)c3c(nc2c1)CCCC3,54 nM,
c1ccc2c(NCCCCCCNc3c4c(nc5ccccc35)CCC4)c3c(nc2c1)CCC3,273 nM,
Clc1ccc2c(NCCCCCCNc3c4c(nc5cc(Cl)ccc35)CCCC4)c3c(nc2c1)CCCC3,312 nM,0.6 nM
c1ccc2c(NCCCCCCNc3c4c(nc5ccccc35)CCCC4)c3c(nc2c1)CCCC3,83 nM,1.4 nM
c1ccc2c(NCCCCCCCCNc3c4c(nc5ccccc35)CCC4)c3c(nc2c1)CCC3,165 nM,
Fc1ccc2c(NCCCCCCCNc3c4c(nc5cc(F)ccc35)CCCC4)c3c(nc2c1)CCCC3,257 nM,0.6 nM
Fc1ccc2c(NCCCCCCNc3c4c(nc5cc(F)ccc35)CCCC4)c3c(nc2c1)CCCC3,45 nM,0.9 nM
c1ccc2c(NCCCCCCCCNc3c4c(nc5ccccc35)CCCC4)c3c(nc2c1)CCCC3,53 nM,1.6 nM
c1cnc2nc3c(c(NCCCCCCNc4c5c(nc6ncccc46)CCCC5)c2c1)CCCC3,93 nM,
c1cnc2nc3c(c(NCCCCCCCCNc4c5c(nc6ncccc46)CCCC5)c2c1)CCCC3,23 nM,
c1ccc2c(NCCCCCCCNc3c4c(nc5ccccc35)CCC4)c3c(nc2c1)CCC3,328 nM,75 nM
c1cnc2nc3c(c(NCCCCCCCNc4c5c(nc6ncccc46)CCCC5)c2c1)CCCC3,59 nM,1.3 nM
